These results are taken from patent US7759496B2, “Imidazole derivatives having affinity for alpha 2 receptors activity” (Orion Corporation, priority 2002, dated 2010).

Read-outs that look alike come from different tables or passages of the source.

Data set [1] can be described thus: Chemical stability in phosphate buffer at 37° C. In kind it is physicochemical. The procedure:
An appropriate amount of the test compound (initial concentrations were 0.1-0.4 mM) was dissolved in pre-heated phosphate buffer (0.16 M, μ=0.5, pH 7.4 or pH 5.0). The solution was placed in a thermostated water bath at 37° C. and aliquots were taken at suitable intervals and analyzed by HPLC to determine the degradation rate of the compound. The pseudo-first-order half-life (t1/2) was calculated from the linear slopes of semi-logarithmic plots of remaining compound over time.

The test system of data set [2] is serum esterases. As to the kind of experiment: Enzymatic hydrolysis in 80% human serum. In kind it is in vitro ADME. The note with it: pH 7.4, 37° C., read-out: t1/2 (min) 80% human serum (pH 7.4). The method, then:
To exert the pharmacological effect in the body, a prodrug should be enzymatically degraded to the parent drug. Therefore, the susceptibility of the compounds to serum esterases was evaluated.
An appropriate amount of the test compound was dissolved in one volume (e.g. 1 ml) of phosphate buffer (0.16 M, μ=0.5, pH 7.4) at 37° C. Four volumes (e.g. 4 ml) of pre-heated human serum were added and the solutions were mixed in a water bath at 37° C. (initial concentrations were 0.2-0.5 mM). At suitable intervals, 300 μl aliquots were withdrawn and deproteinated with 600 μl of acetonitrile. After mixing and centrifugation, 600 μl of the supernatant was evaporated to dryness under a stream of air at 40° C. The residue was re-dissolved in 300 μl of the mobile phase and analyzed by HPLC. The pseudo-first-order half-life (t1/2) was calculated from the linear slopes of semi-logarithmic plots of remaining compound over time. Also the formation of the parent drug was determined.

Data set [3] deals with normotensive rabbits. As to the kind of experiment: IOP study in rabbits. The note with it: 2.5 μg, mean ± SE, n = 5-6. In kind it is in vivo, rabbit. The procedure: The IOP lowering effect of the prodrug was also compared to the effect of MPV-2426.
To perform the IOP test, a rabbit was placed in a plastic restraining box located in a quiet room. A single drop (25 μl) of the test solution was instilled unilaterally into its left eye on the upper corneoscleral limbus. During installation, the upper eyelid was pulled slightly away from the globe. IOP was measured using a BioRad (Cambridge, Mass.) Digilab Modular One Pneumatonometer. Before each measurement one or two drops of oxybuprocaine (0.06%) were applied to the cornea before tonometry to eliminate discomfort. The upper and lower eyelids were then gently retracted, and the applanation sensor was brought into contact with the center of the cornea. For each
determination at least two readings were taken from each treated (ipsilateral) and untreated (contralateral) eye, and the mean of these readings was used. IOP of the rabbits was measured at 2, 1, and 0 h before and at 0.5, 1, 2, 3, 4 and 5 h after eyedrop administration. IOP at the time of eyedrop administration (0 h) was used as a baseline value. All studies were set up using a masked and randomized crossover design. At least 72 h washout time was allowed for each rabbit between each dosing. Results

Where [4] appears, read: phosphate buffer pH 5.0, 37° C., read-out: t1/2 (d) phosphate buffer pH 5.0 (converted).
Setting [5] is: phosphate buffer pH 7.4, 37° C., read-out: t1/2 (d) phosphate buffer pH 7.4 (converted).

Take `CCCC(=O)Oc1ccc2c(c1)C(Cc1c[nH]cn1)CC2.Cl` (centres unmarked) [example 2, 4-(6-Butyryloxyindan-1-ylmethyl)-1H-imidazol-1-ium chloride]: the values for the half-life in data set [1] (setting [4]), in data set [1] (setting [5]) and in data set [2] were 49 days, 2.5 days and 0.2 min, respectively.

Consider `CC(=O)Oc1ccc2c(c1)C(Cc1c[nH]cn1)CC2.Cl` (centres unmarked) [example 1, 4-(6-Acetoxyindan-1-ylmethyl)-1H-imidazol-1-ium chloride], for which the half-life was 23 days in data set [1] (setting [4]), 1.1 days in data set [1] (setting [5]) and 0.18 min in data set [2].

Take `Cl.Oc1ccc2c(c1)C(Cc1c[nH]cn1)CC2` (centres unmarked) [MPV-2426, 4-(6-hydroxyindan-1-ylmethyl)-1H-imidazol-1-ium chloride, reference compound]: the “Intraocular pressure (IOP) change” value in data set [3] (treated eye, 0 h) is listed as 0.0 ± 0.0 mmHg; in data set [3] (treated eye, 0.5 h), 0.1 ± 1.0 mmHg; in data set [3] (treated eye, 1 h) it was −2.6 ± 1.1 mmHg; in data set [3] (treated eye, 2 h) it was −3.0 ± 0.7 mmHg; in data set [3] (treated eye, 3 h) it was −2.4 ± 0.5 mmHg; in data set [3] (treated eye, 4 h), −0.4 ± 1.2 mmHg. Besides, the “Intraocular pressure (IOP) change” value was −0.1 ± 0.8 mmHg in data set [3] (treated eye, 5 h); 0.0 ± 0.0 mmHg in data set [3] (untreated eye, 0 h); 0.3 ± 1.0 mmHg in data set [3] (untreated eye, 0.5 h); −1.3 ± 0.7 mmHg in data set [3] (untreated eye, 1 h); −1.6 ± 0.9 mmHg in data set [3] (untreated eye, 2 h); −1.7 ± 0.6 mmHg in data set [3] (untreated eye, 3 h). Moreover, the “Intraocular pressure (IOP) change” value in data set [3] (untreated eye, 4 h) is on record as 0.4 ± 1.1 mmHg; in data set [3] (untreated eye, 5 h), 0.4 ± 1.1 mmHg.
